For one test, the target named is T1, Cathepsin K (Homo sapiens, UniProt P43235).
T1 sequence (P43235 whole entry): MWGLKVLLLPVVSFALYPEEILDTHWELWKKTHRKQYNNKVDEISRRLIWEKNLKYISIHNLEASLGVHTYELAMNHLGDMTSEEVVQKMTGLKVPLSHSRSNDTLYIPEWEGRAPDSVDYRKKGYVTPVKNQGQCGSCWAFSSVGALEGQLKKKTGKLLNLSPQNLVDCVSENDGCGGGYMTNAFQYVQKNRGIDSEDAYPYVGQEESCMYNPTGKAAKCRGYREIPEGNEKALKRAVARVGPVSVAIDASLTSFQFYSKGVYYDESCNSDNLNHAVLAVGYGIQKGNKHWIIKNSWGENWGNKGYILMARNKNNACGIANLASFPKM
Nature of the test: Inhibition of human recombinant cathepsin K.

A further test concerns the target Procathepsin L (Homo sapiens, UniProt P07711). Nature of the test: Inhibition of human recombinant cathepsin L.
The target of the next test is T2, Cathepsin F (Homo sapiens, UniProt Q9UBX1).
T2 sequence (Q9UBX1 whole entry): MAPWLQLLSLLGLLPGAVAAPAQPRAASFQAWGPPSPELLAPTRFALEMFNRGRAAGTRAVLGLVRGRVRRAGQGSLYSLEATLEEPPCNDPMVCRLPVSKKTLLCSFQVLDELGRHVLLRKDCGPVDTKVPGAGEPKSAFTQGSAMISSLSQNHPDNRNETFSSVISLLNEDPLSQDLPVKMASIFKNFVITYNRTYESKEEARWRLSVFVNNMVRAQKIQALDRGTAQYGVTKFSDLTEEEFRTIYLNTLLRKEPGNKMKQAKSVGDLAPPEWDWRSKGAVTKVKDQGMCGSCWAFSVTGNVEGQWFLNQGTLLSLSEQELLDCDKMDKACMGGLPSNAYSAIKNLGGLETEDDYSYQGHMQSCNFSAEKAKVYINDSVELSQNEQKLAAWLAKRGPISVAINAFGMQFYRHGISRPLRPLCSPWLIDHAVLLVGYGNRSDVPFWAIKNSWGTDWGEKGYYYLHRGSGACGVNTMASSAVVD
Nature of the test: Inhibition of human recombinant cathepsin F.

A further test has as its target Trypsin (Homo sapiens) (UniProt P07477+P07478+P35030). Nature of the test: Inhibition of trypsin. The format is protein assay.
Another test concerns the target T3, Pro-cathepsin H (Homo sapiens, UniProt P09668).
T3 sequence (P09668 whole entry): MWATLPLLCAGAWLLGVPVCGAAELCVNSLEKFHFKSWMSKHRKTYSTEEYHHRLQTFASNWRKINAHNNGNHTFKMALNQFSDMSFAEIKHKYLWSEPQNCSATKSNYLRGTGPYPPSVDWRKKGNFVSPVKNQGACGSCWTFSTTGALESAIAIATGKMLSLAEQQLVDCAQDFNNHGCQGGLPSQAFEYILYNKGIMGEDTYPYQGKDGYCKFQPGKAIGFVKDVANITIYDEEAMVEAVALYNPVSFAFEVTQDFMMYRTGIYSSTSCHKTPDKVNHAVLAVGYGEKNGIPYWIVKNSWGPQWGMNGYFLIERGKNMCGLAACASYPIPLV
Nature of the test: Inhibition of human recombinant cathepsin H.

The next test has as its target T4, Cathepsin L2 (Homo sapiens, UniProt O60911).
T4 sequence (O60911 whole entry): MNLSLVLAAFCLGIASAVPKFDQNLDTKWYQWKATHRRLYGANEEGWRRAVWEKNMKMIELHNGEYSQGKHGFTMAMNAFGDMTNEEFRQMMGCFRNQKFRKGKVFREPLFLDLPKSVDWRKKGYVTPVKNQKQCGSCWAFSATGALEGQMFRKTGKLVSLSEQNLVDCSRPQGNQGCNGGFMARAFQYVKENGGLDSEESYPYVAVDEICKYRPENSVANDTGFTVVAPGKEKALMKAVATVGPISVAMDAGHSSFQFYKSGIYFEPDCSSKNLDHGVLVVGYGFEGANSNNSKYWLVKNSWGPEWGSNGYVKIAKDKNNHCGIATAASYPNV
Nature of the test: Inhibition of human recombinant cathepsin V.

The target of a further test is Cathepsin B (Homo sapiens, UniProt P07858). Nature of the test: Inhibition of human recombinant cathepsin B.
In test [1] the target is Prothrombin (Homo sapiens) (UniProt P00734). Nature of the test: Inhibition of thrombin.
Another test addresses Cathepsin S (Homo sapiens, UniProt P25774). Nature of the test: Inhibition of human recombinant cathepsin S.
The target of a further test is Dipeptidyl peptidase 1 (Homo sapiens, UniProt P53634). Nature of the test: Inhibition of human recombinant cathepsin C.

The structures appear in SMILES notation. Calls of active or inactive are those of the source. No cut-off for these calls is given here.

The values below come from ChEMBL document CHEMBL1144593, “Bicyclic carbamates as inhibitors of papain-like cathepsin proteases” (Bioorg Med Chem Lett, 2007).

Sequence of Procathepsin L (P07711 whole entry): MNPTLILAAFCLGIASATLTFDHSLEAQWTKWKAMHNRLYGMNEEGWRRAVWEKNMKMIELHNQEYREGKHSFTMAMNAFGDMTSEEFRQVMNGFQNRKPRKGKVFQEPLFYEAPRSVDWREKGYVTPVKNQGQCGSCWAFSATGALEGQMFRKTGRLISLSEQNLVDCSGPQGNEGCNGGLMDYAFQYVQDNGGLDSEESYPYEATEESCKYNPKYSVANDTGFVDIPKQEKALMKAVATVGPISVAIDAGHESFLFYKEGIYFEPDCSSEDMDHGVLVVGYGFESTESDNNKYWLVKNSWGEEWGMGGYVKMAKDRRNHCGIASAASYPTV
Sequence of Dipeptidyl peptidase 1 (P53634 25-134 limits assumed): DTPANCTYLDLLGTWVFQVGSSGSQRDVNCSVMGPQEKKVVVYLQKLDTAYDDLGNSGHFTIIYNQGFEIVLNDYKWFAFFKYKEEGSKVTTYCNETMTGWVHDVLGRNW
Sequence of Dipeptidyl peptidase 1 (P53634 231-394 limits assumed): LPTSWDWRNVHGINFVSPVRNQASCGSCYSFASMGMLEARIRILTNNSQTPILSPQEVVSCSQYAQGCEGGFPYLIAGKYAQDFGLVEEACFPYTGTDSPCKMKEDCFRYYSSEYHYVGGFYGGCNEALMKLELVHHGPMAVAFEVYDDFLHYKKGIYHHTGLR
Sequence of Dipeptidyl peptidase 1 (P53634 395-463 limits assumed): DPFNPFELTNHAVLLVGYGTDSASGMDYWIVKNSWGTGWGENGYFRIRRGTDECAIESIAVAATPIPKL
Sequence of Cathepsin S (P25774 whole entry): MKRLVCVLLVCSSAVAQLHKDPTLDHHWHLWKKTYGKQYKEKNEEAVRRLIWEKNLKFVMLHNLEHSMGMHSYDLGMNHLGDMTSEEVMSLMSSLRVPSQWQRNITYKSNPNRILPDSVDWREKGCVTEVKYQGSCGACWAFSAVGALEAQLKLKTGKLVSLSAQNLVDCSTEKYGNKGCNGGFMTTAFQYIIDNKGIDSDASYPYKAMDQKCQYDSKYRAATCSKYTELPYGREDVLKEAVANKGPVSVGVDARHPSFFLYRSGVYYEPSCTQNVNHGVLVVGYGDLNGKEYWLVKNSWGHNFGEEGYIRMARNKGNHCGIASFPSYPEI

Consider `O=C1O[C@@H]2CN1CC[C@@H]2OCc1ccccc1`, for which the IC50 (as a rule, the point on the concentration scale where inhibition reaches its midpoint) is 511 nM at Cathepsin K; 263 nM on Procathepsin L; 3760 nM at Cathepsin F; above 10000 nM on Pro-cathepsin H; 1290 nM on Cathepsin L2; 2 nM on Cathepsin B. Moreover, the IC50 is 174 nM on Cathepsin S and 403 nM on Dipeptidyl peptidase 1. Besides, the result (at Trypsin (Homo sapiens); in test [1]) was inactive.
For `O=C1O[C@@H]2CN1CC[C@@H]2Oc1ccccc1`, the IC50 was 104 nM at Cathepsin K; 26 nM on Procathepsin L; 487 nM at Cathepsin F; 6590 nM on Pro-cathepsin H; 158 nM at Cathepsin L2; 5 nM on Cathepsin B. In addition, the IC50 at Cathepsin S amounted to 17 nM; at Dipeptidyl peptidase 1, 29 nM. Further, the result (on Trypsin (Homo sapiens); in test [1]) was inactive.
For `Cc1cccc(O[C@H]2CCN3C[C@@H]2OC3=O)c1C` (racemic), the IC50 at Cathepsin K is 2440 nM; at Procathepsin L it was 1270 nM; on Cathepsin F it was 5910 nM; on Pro-cathepsin H it was above 30000 nM; at Cathepsin L2 it was 3320 nM; at Cathepsin B, 46 nM. In addition, the values for the IC50 on Cathepsin S and at Dipeptidyl peptidase 1 were 473 nM and 1730 nM, respectively. The result (at Trypsin (Homo sapiens); in test [1]) was inactive.
On to `Cc1cccc(OCC2CN(C)C(=O)O2)c1C` (stereo not given), for which the IC50 at Cathepsin K, at Procathepsin L, on Cathepsin F, on Pro-cathepsin H, on Cathepsin L2 and on Cathepsin B was above 100000 nM in each case. The IC50 on Cathepsin S and on Dipeptidyl peptidase 1 was above 100000 nM throughout. The outcome (at Trypsin (Homo sapiens); in test [1]) was inactive.
With `O=C1O[C@H]2CN1CC[C@@H]2Br`, the IC50 on Cathepsin K is above 30000 nM; on Procathepsin L, 5820 nM; on Cathepsin F, above 10000 nM; on Pro-cathepsin H, above 100000 nM; at Cathepsin L2 it was above 10000 nM; at Cathepsin B, 158 nM. The IC50 was 4550 nM at Cathepsin S and above 10000 nM on Dipeptidyl peptidase 1. The outcome (at Trypsin (Homo sapiens); in [1]) was inactive.
Consider `CC(C)CO[C@H]1CCN2C[C@H]1OC2=O`, for which the IC50 is 1270 nM on Cathepsin K; 230 nM at Procathepsin L; 1830 nM at Cathepsin F; above 10000 nM on Pro-cathepsin H; 894 nM on Cathepsin L2; 8 nM at Cathepsin B. Further, the IC50 came out at 298 nM on Cathepsin S and 191 nM on Dipeptidyl peptidase 1. Moreover, the result (on Trypsin (Homo sapiens); in test [1]) was inactive.
Turning to `Cc1cccc(O[C@@H]2CCNC[C@H]2O)c1C`, the IC50 on Cathepsin K, at Procathepsin L, at Cathepsin F, at Pro-cathepsin H, on Cathepsin L2 and on Cathepsin B was above 100000 nM throughout. In addition, the IC50 at Cathepsin S and on Dipeptidyl peptidase 1 was above 100000 nM in each case. Also, the outcome (at Trypsin (Homo sapiens); in [1]) was inactive.
Turning to `Cc1cccc(O[C@H]2CCN3C[C@H]2OC3=O)c1C` (relative stereo), the IC50 came to 38 nM on Cathepsin K; 22 nM on Procathepsin L; 331 nM at Cathepsin F; 2650 nM on Pro-cathepsin H; 131 nM on Cathepsin L2; 1 nM on Cathepsin B. Moreover, the IC50 is 16 nM on Cathepsin S and 18 nM at Dipeptidyl peptidase 1. For the same molecule, the outcome (at Trypsin (Homo sapiens); in test [1]) was inactive.
Turning to `Cc1cccc(O[C@@H]2CCNC[C@@H]2O)c1C`, the IC50 at Cathepsin K, on Procathepsin L, on Cathepsin F, on Pro-cathepsin H, at Cathepsin L2 and at Cathepsin B was above 100000 nM throughout. Further, the IC50 on Cathepsin S and at Dipeptidyl peptidase 1 was above 100000 nM throughout. In addition, the result (at Trypsin (Homo sapiens); in [1]) was inactive.
Turning to `S=C1O[C@@H]2CN1CC[C@@H]2Oc1ccccc1`, the concentration for half-maximal inhibition (IC50) is 1830 nM on Cathepsin K; 994 nM at Procathepsin L; above 10000 nM on Cathepsin F; above 100000 nM at Pro-cathepsin H; 5170 nM on Cathepsin L2; 519 nM on Cathepsin B. For the same molecule, the results for the IC50 on Cathepsin S and at Dipeptidyl peptidase 1 were 696 nM and 606 nM, respectively. For the same molecule, the result (at Trypsin (Homo sapiens); in test [1]) was inactive.
